“And” between values parts separate entries of the source, which are not always exact repeats. Equal values may be shown once.
What was measured:
CYP 2C9 = molecular target: T1, CYP 2C9 (Homo sapiens, UniProt P11712); test: cytochrome P450 inhibition in human liver microsomes; assay type: in vitro ADME
T1 construct: from tissue; host or cells: human liver microsomes
Procedure: (§1) A 10 μl aliquot of this solution was then diluted using 90 μl of 100 mM potassium phosphate buffer (pH 7.4). Probe substrate cocktail solutions for seven major cytochrome P450 isozymes (phenacetin (100 μM for 1A2), bupropion (50 μM for 2B6), diclofenac (20 μM for 2C9), mephenytoin (100 μM for 2C19), dextromethorphan (5 μM for 2D6), chlorzoxazone (50 μM for 2E1), and midazolam (5 μM for 3A4)) were prepared with phosphate buffer. […] Reactions were stopped at 15 min by the addition of 200 μl cold acetonitrile (containing propranolol as internal standard at 20 ng ml^−1) and centrifuged at 17,968×g for 10 min. A 2 μl aliquot of the supernatant was injected into the LC-MS/MS system. The ratio of peak area of test compound /internal standard was used to determine the % metabolic activity of probe substrate according to the concentrations of N-AS added.

CYP 2C19 = molecular target: T2, CYP 2C19 (Homo sapiens, UniProt P33261); test: as above; assay type: in vitro ADME
T2 construct: from tissue; host or cells: human liver microsomes
T2 sequence (P33261 whole entry): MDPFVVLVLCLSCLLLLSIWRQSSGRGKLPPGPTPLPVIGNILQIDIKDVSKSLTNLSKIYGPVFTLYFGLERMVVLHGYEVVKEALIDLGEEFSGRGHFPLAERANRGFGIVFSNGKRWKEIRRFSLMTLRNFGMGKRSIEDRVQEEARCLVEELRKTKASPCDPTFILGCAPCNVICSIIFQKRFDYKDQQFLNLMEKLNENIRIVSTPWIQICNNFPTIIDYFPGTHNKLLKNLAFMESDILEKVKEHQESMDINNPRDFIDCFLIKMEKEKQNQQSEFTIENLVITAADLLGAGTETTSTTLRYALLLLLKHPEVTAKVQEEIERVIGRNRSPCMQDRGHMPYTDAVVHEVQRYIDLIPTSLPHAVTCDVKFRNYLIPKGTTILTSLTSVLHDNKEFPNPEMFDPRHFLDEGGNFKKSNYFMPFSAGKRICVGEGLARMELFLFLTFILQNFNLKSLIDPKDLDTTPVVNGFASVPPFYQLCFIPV
Procedure: as §1

CYP 2B6 = molecular target: T3, CYP 2B6 (Homo sapiens, UniProt P20813); test: as above; assay type: in vitro ADME
T3 construct: from tissue; host or cells: human liver microsomes
T3 sequence (P20813 whole entry): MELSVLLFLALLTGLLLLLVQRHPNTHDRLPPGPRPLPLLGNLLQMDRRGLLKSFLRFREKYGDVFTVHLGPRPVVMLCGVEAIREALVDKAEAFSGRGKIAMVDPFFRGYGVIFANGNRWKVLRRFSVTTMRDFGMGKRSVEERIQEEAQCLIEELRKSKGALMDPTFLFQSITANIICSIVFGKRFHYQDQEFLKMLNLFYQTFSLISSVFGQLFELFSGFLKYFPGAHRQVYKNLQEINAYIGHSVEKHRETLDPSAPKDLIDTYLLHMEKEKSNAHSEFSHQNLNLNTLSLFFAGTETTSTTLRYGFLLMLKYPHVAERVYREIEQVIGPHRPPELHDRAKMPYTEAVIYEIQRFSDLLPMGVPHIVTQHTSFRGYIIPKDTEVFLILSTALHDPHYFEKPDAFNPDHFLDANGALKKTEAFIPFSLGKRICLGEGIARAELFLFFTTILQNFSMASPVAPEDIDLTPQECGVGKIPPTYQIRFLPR
Procedure: as §1

CYP 2E1 = molecular target: T4, CYP 2E1 (Homo sapiens, UniProt P05181); test: as above; assay type: in vitro ADME
T4 construct: from tissue; host or cells: human liver microsomes
T4 sequence (P05181 whole entry): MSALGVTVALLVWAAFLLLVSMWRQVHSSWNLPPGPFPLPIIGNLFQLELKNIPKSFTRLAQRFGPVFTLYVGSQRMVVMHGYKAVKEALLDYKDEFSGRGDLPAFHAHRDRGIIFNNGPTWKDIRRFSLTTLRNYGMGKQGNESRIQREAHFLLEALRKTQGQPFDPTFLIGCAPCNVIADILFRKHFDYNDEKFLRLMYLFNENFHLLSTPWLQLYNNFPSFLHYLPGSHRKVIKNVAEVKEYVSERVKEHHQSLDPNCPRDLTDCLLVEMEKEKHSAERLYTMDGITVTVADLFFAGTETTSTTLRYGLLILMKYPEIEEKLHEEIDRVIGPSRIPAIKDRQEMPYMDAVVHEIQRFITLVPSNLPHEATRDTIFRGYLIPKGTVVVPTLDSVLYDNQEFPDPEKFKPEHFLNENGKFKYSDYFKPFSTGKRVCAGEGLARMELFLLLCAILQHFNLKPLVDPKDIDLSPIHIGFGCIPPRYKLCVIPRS
Procedure: as §1

CYP 1A2 = molecular target: T5, CYP 1A2 (Homo sapiens, UniProt P05177); test: as above; assay type: in vitro ADME
T5 construct: from tissue; host or cells: human liver microsomes
T5 sequence (P05177 whole entry): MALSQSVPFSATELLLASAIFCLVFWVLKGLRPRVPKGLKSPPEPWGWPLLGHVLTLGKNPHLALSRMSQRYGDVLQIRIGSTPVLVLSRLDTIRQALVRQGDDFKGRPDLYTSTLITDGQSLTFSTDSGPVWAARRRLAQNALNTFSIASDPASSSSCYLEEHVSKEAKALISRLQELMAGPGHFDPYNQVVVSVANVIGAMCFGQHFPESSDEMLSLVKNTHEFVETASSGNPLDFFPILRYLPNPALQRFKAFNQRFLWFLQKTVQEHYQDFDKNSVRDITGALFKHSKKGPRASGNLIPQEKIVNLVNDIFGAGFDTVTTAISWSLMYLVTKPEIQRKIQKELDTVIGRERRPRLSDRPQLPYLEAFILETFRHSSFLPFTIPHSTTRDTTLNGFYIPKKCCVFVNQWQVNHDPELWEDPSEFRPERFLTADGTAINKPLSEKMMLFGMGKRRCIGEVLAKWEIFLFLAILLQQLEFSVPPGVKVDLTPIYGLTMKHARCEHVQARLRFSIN
Procedure: as §1

CYP 2D6 = molecular target: T6, CYP 2D6 (Homo sapiens, UniProt P10635); test: as above; assay type: in vitro ADME
T6 construct: from tissue; host or cells: human liver microsomes
T6 sequence (P10635 whole entry): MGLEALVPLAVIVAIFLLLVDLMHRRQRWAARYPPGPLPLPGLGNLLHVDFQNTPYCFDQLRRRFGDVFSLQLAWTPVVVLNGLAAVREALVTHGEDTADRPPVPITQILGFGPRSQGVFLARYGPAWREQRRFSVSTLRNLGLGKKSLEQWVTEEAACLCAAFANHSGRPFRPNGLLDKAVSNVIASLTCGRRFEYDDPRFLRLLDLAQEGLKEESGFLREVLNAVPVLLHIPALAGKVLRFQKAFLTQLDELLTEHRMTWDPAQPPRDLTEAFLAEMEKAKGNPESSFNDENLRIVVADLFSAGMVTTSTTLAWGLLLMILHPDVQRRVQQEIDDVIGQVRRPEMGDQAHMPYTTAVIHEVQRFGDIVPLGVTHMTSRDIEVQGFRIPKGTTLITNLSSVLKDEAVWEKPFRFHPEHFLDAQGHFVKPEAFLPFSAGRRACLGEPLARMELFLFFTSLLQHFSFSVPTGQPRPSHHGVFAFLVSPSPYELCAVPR
Procedure: as §1

CYP 3A4 = molecular target: T7, CYP 3A4 (Homo sapiens, UniProt P08684); test: as above; assay type: in vitro ADME
T7 construct: from tissue; host or cells: human liver microsomes
T7 sequence (P08684 whole entry): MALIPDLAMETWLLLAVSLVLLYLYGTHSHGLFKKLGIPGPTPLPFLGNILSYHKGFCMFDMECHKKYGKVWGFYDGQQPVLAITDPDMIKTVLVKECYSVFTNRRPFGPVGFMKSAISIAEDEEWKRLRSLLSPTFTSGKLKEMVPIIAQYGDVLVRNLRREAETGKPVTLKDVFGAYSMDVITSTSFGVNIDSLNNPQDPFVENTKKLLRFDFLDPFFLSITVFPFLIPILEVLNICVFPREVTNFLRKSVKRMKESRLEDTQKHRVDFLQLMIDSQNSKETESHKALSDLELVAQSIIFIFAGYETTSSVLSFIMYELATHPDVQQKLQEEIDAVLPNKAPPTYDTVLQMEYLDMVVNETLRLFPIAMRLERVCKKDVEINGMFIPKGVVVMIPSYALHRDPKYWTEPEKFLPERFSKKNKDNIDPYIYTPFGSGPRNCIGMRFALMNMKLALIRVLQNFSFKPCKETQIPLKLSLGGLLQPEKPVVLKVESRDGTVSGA
Procedure: as §1

tumors = tested on: tumors; design: method as in PMID 27043542, PMID 24566153; settings: cited from earlier work
neuron = test: immunofluorescence of ac-S565 and COX2 in primary cells; assay type: cell-based, C57BL/6 mice; settings: Ab 10mM, replicates
Procedure: To confirm the generation and roles of N-AS in neurons, cells from E18 C57BL/6 mice were prepared as previously described. Cortices were dissected and then dissociated followed by incubation in papain (Worthington) at 37 °C for 15 min. Neurons were plated on poly-L-lysine-coated coverslips with neuronal culture medium, serum-free Neurobasal medium (Gibco) containing 2% B27 supplements (Gibco), 1 mM Glutamax supplement (Gibco), and 100 U ml^−1 streptomycin/ 100 U ml^−1 penicillin (Gibco) at 37 °C in a humidified atmosphere of 5% CO2. […] Primary astrocyte cultures were prepared from C57BL/6 mice as described previously. In brief, after removal of the meninges, postnatal day 7 (P7) mouse brain tissues were minced and incubated in a rocking water bath at 37 °C for 30 min in the presence of 0.25% trypsin-EDTA (Sigma-Aldrich). […] The human microglia treated with Aβ 1–42 and/or zileuton was incubated with N-AS (2.5 μM, 2 h, Sigma-Aldrich, 01912), and were analyzed for the generation and roles of N-AS.
Thioflavin S (Sigma-Aldrich) staining was carried out according to previously described procedures. […] The sections were analyzed with a laser-scanning confocal microscope (FV3000; Olympus) or with a BX51 microscope (Olympus). MetaMorph software (Molecular Devices) was used to quantification. Three-dimensional reconstruction of microglia was recorded and analyzed using IMARIS software (Bitplane)[11]. […]

T1 sequence (P11712 whole entry): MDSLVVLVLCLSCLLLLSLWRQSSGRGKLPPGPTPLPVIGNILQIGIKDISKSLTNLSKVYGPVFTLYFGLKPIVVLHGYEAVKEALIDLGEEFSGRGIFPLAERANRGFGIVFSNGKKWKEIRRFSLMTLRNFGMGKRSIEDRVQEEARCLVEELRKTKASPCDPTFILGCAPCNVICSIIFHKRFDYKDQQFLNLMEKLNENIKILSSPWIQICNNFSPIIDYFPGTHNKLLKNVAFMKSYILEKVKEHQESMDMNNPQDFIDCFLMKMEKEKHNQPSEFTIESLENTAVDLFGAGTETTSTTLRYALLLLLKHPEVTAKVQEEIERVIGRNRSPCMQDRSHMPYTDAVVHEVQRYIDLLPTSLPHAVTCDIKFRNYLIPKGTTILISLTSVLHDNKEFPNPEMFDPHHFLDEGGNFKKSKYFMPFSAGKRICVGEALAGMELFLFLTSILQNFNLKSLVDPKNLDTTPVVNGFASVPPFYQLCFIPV

IC50 (CYP 2C9) [µM] | activity at 15 min, 25 µM (CYP 2C9; human, liver microsomes, pH 7.4, probe diclofenac, N-AS 25 µM, read-out: % of control at 25 µM) [%] | IC50 (CYP 2C19) [µM] | activity at 15 min, 25 µM (CYP 2C19; human, liver microsomes, pH 7.4, probe mephenytoin, N-AS 25 µM, read-out: % of control at 25 µM) [%] | IC50 (CYP 2B6) [µM] | activity at 15 min, 25 µM (CYP 2B6; human, liver microsomes, pH 7.4, probe bupropion, N-AS 25 µM, read-out: % of control at 25 µM) [%] | IC50 (CYP 2E1) [µM] | activity at 15 min, 25 µM (CYP 2E1; human, liver microsomes, pH 7.4, probe chlorzoxazone, N-AS 25 µM, read-out: % of control at 25 µM) [%] | IC50 (CYP 1A2) [µM] | activity at 15 min, 25 µM (CYP 1A2; human, liver microsomes, pH 7.4, probe phenacetin, N-AS 25 µM, read-out: % of control at 25 µM) [%] | IC50 (CYP 2D6) [µM] | activity at 15 min, 25 µM (CYP 2D6; human, liver microsomes, pH 7.4, probe dextromethorphan, N-AS 25 µM, read-out: % of control at 25 µM) [%] | IC50 (CYP 3A4) [µM] | activity at 15 min, 25 µM (CYP 3A4; human, liver microsomes, pH 7.4, probe midazolam, N-AS 25 µM, read-out: % of control at 25 µM) [%] | Compound | apoptosis of tumors (tumors) | ac-S565 with COX2, immunofluorescence quantification (Fig 3c) (neuron)
> 10 | 95.5 | > 10 | 79.6 | > 10 | 92.7 | > 10 | 84 | > 10 | 94.6 | > 10 | 104 | > 10 | 114 | CCCCCCCCCCCCC/C=C/[C@@H](O)[C@H](CO)NC(C)=O [N-AS, N-((2S,3R,E)-1,3-Dihydroxyoctadec-4-en-2-yl)acetamide] | induce apoptosis of tumors | 
 |  |  |  |  |  |  |  |  |  |  |  |  |  | Ab: Aβ 1–42 (Invitrogen, 03112) used to induce an AD environment in cells |  | 0.191 and 0.165 and 0.09731 and 0.2737 and 0.2437 and 0.2571

Source: paper PMC7217877, “N-AS-triggered SPMs are direct regulators of microglia in a model of Alzheimer’s disease” (Nature Communications, 2020)
